Assay results published in paper PMC4640567, “Cinnamic Acid Bornyl Ester Derivatives from Valeriana wallichii Exhibit Antileishmanial In Vivo Activity in Leishmania major-Infected BALB/c Mice” (PLoS ONE, 2015).
Several values for one entry are separate records, joined by “and”; a condition that tells them apart may be missing. Equal values may be shown once.

Legend:
L. donovani = assay: Preliminary studies in L. donovani infected BALB/c mice; assay type: in vivo; conditions: need further evaluation
L. major promastigotes [1] = assay: Diff-Quik staining and transmitted light microscopy, cell morphology; assay type: cell-based, Leishmania major; conditions: 100 μM
Experimental: (§1) L. major parasites harvested from blood agar cultures were washed twice with Dulbecco’s phosphate-buffered saline (DPBS; Invitrogen, Darmstadt, Germany) and centrifuged at 3.000 × g for 10 min. The pellet was suspended in RPMI 1640 medium at a final concentration of 1 × 10^8 cells/ml. Cells were treated with 1% DMSO, 122.7 μM miltefosine (1-hexadecylphorylcholine; apoptosis inducer), or 100 μM of the tested compounds 1 and 2 in a final volume of 200 μl in 96 well plates. Samples were incubated at 27°C in 5% CO2 for several time points between 30 min and 24 h. Transmitted light microscopic, transmission electron microscopic (TEM), and flow cytometric techniques were used to find phenotypic patterns caused by the treatment with the tested compounds.
After incubation for 30 min, 1 h, 2 h, 4 h, and 24 h in the presence of the tested compounds 1 and 2, promastigotes were harvested and centrifuged in a Cytospin 3 centrifuge (Shandon, Frankfurt, Germany) on microscope slides at 253 × g for 5 min at room temperature (RT). Cytospin preparations of cells were stained using the Differential Quick Stain (Diff-Quik) dye (Medion Diagnostics AG, Duedingen, Switzerland), according to the manufacturers’ protocol with some modifications. Diff-Quik stains the leishmanial nuclei and the kinetoplasts dark purple and the cytoplasm light purple allowing the observation of phenotypic changes within the parasite. Briefly, air-dried cells were fixed by dipping the slides 5 times for 3 seconds in fixative solution. Subsequently the slides were stained with Solution I following Solution II (from Diff-Quik kit) and air-dried between each staining steps. Finally, the samples were rapidly dipped once in ultra-pure water (produced by a TKA purification system apparatus, Niederelbert, Germany) to remove excessive staining solutions. The air-dried cells were analyzed by transmitted light microscopy under a 50× objective on a Nikon ECLIPSE 50i microscope equipped with a digital camera (Nikon, Tokyo, Japan). The images were processed using NIS Elements D software (Nikon).

[2] = AlamarBlue cytotoxicity, HepG2 cells; assay type: cell-based; conditions: human, read-out: Cytotoxicity (μM) HEP G2
Experimental: (§2) BMDM were generated in complete RPMI medium as described previously. On day six, the cytotoxicity against 2 × 10^5 cells/ml was tested at increasing concentrations of compounds 1 and 2 for 48 h. Human embryonic kidney HEK 293 T cells (ATCC, Wesel, Germany) were cultured in Dulbecco´s Modified Eagle Medium (DMEM) (Life Technologies, Darmstadt, Germany), with 10% FCS (PAA Laboratories, Germany). According to the standard operating procedures (SOP) within the Collaborative Research Center 630 (SFB 630) 2 × 10^4 HEK 293 T cells/ml were tested at increasing concentrations of compounds 1 and 2 for 48 h. Human liver carcinoma HepG2 cells (ATCC) were cultured in RPMI medium (Gibco) with 10% FCS. 1 × 10^5 cells/ml HepG2 were tested at increasing concentrations of 1 and 2 for 72 h according to the SOPs. The AlamarBlue assay was performed as described above for L. major parasites.

L. major amastigotes = assay: microbe, parasite or virus in culture; assay type: cell-based; conditions: Leishmania major; intracellular amastigotes in BMDM, 24 h; read-out: Cytotoxicity (μM) L. major amastigotes (IC50)
Experimental: Luciferase-transgenic (Luc-tg) L. major has been generated as described previously. The virulence of Luc-tg L. major was maintained by passage in female BALB/c mice and promastigotes were grown in vitro in blood agar cultures with addition of 50 μg/mL hygromycin B using the same conditions as described above.
A detailed protocol of antileishmanial investigations against intracellular L. major amastigotes residing within bone marrow-derived macrophages (BMDM) is described elsewhere. Briefly, 2 × 10^5/ml BMDM were infected with Luc-tg L. major promastigotes at a ratio of 1:15 for 24 h. These infected BMDM were cultured in the absence or presence of increasing concentrations of the tested compounds 1 and 2 for 24 h prior to the supplement of Britelite plus (PerkinElmer, Waltham, MA, USA) for 5 min. Britelite plus is a very sensitive assay for the quantification of firefly luciferase in Leishmania parasites. The luminescence was measured using a Victor X Light 2030 luminometer (PerkinElmer, Waltham, MA, USA).

L. major promastigotes [3] = assay: Annexin V / propidium iodide flow cytometry, cell death phenotype; assay type: cell-based, Leishmania major; conditions: 100 μM
Experimental: as §1
The loss of membrane integrity and translocation of phosphatidylserine (PS) to the outside of the cellular membrane can be determined by annexin V (AV) and propidium iodide (PI) staining. Double staining with AV-fluorescein isothiocyanate (FITC) and PI during flow cytometry analysis leads to discrimination between four populations: double negatives or alive cells (AV^-/PI^-), double positive or late necrotic/late apoptotic cells (AV^+/PI^+), PI-positive and AV-negative or early necrotic cells (AV^-/PI^+), and PI-negative and AV-positive or early apoptotic cells (AV^+/PI^-).
Parasites were harvested after incubation for 6 h, 10 h, and 24 h in the presence of compounds 1, 2 and miltefosine (Cayman Chemical Company, MI, USA), respectively, the latter serving as positive control for the induction of apoptotic cell death. DMSO was used as solvent control. Cell staining was performed using an AV-FITC Apoptosis detection kit (Sigma-Aldrich, Saint Louis, MO, USA). Cells were harvested, washed and suspended in 500 μL of binding buffer, 5 μL of AV-FITC and 10 μl of PI. The cells were incubated for 10 min in the dark at RT. Finally, stained samples were immediately analyzed by flow cytometry using MACSQuant analyzer or a flow cytometer (Becton Dickinson, San José, CA, USA).

L. major promastigotes [4] = assay: MitoTracker Red CMXRos staining, flow cytometry; assay type: cell-based, Leishmania major; conditions: 100 μM
Experimental: L. major promastigotes were harvested from blood-agar cultures and washed twice with DPBS (900 × g for 5 min at RT). 2 × 10^6 promastigotes were dissolved in 180 μl RPMI complete medium and seeded in a 96 well plate. Parasites were incubated with 20 μL of compound 1 (final concentration: 100 μM), compound 2 (final concentration: 100 μM) and with 20 μL of DMSO, respectively, for 30 min, 45 min, 60 min, or 120 min at 27°C in a 5% CO2. After incubation 2 μl of MitoTracker Red CMXRos (final concentration: […]) (Life Technologies, Darmstadt, Germany) was added for 15 min at 27°C. Samples were directly acquired using a MACSQuant Analyzer (Miltenyi Biotech, Bergisch Gladbach, Germany) and MitoTracker-positive parasites were analyzed using MACS Quant Analyzing software.

[5] = AlamarBlue cytotoxicity, BMDM; assay type: cell-based; conditions: bone marrow-derived macrophages (BMDM)
Experimental: as §2

Compound | Antileishmanial in vivo activity (L. donovani) | Time after which vacuolization and changes in cell morphology were observable (L. major promastigotes [1]) | IC50 at 72 h [2] [µM] | IC50 (L. major amastigotes) [µM] | LL: live cells (AV-/PI-) (L. major promastigotes [3]; 6 h) [%] | LR: early apoptotic cells (AV+/PI-) (L. major promastigotes [3]; 6 h) [%] | UL: early necrotic cells (AV-/PI+) (L. major promastigotes [3]; 6 h) [%] | UR: necrotic/late apoptotic cells (AV+/PI+) (L. major promastigotes [3]; 6 h) [%] | LL: live cells (AV-/PI-) (L. major promastigotes [3]; 10 h) [%] | LR: early apoptotic cells (AV+/PI-) (L. major promastigotes [3]; 10 h) [%] | UL: early necrotic cells (AV-/PI+) (L. major promastigotes [3]; 10 h) [%] | UR: necrotic/late apoptotic cells (AV+/PI+) (L. major promastigotes [3]; 10 h) [%] | Induced cell death phenotype (per definition) (L. major promastigotes [3]; 24 h) | LL: live cells (AV-/PI-) (L. major promastigotes [3]; 24 h) | LR: early apoptotic cells (AV+/PI-) (L. major promastigotes [3]; 24 h) | UL: early necrotic cells (AV-/PI+) (L. major promastigotes [3]; 24 h) | UR: necrotic/late apoptotic cells (AV+/PI+) (L. major promastigotes [3]; 24 h) | MitoTracker-positive cells, percentage of DMSO control (100%) (L. major promastigotes [4]; 60 min) [%] | MitoTracker-positive cells, percentage of DMSO control (100%) (L. major promastigotes [4]; 120 min) [%] | IC50 at 48 h [5] [µM]
CC1(C)C2CCC1(C)C(OC(=O)C=Cc1ccccc1)C2 (single isomer, unassigned; (-)) [Compound 1, (-)-Bornyl cinnamate] | promising antileishmanial in vivo activities | 30 min | > 100 | 10.9 | 71.3 | 3.7 | 12.3 | 12.7 | 69.3 | 4.2 | 12.9 | 13.6 | necrotic cell death phenotype | 33% and 33.2% | 4.1% | 30% and 29.8% | 33% and 32.9% | 75 | 63 | 54.3
CC1(C)C2CCC1(C)C(OC(=O)CCc1ccccc1)C2 (single isomer, unassigned; (-)) [Compound 2, (-)-bornyl 3-phenylpropionate] | promising antileishmanial in vivo activities | 1 h | > 100 | 89.1 | 54.4 | 8.8 | 10.7 | 26.1 | 47.2 | 9.3 | 16.8 | 26.7 | miltefosine-like cell death | 21% and 20.6% | 19% and 18.5% | 24% and 24.2% | 37% and 36.7% | 75.2 | 60.2 | > 100
